Data taken from US20150374709A1, “TETRA-SUBSTITUTED NDGA DERIVATIVES VIA ETHER BONDS AND CARBAMATE BONDS AND THEIR SYNTHESIS AND PHARMACEUTICAL USE” (ERIMOS PHARMACEUTICALS LLC, priority 2006, published 2015).

Key:
[1] = system: Ovarian Cancer cell lines; assay: NCI DTP human tumor cell line screen, ovarian cancer panel; assay type: cell-based; conditions: Ovarian Cancer (6 cell lines)
Text: (§1) The United States National Cancer Institute (NCI) provides a developmental therapeutics program (DTP) (http://dtp.nci.nih.gov/branches/btb/ivelsp.html) to screen submitted substances in support of cancer drug discovery. The In Vitro Cell Line Screening Project (IVCLSP) is a dedicated service providing direct support to the DTP anticancer drug discovery program and is designed to screen up to 3,000 compounds per year for potential anticancer activity. The operation of this screen utilizes 60 different human tumor cell lines, representing leukemia, melanoma and cancers of the lung, colon, brain, ovary, breast, prostate, and kidney. The aim is to prioritize for farther evaluation, synthetic compounds or natural product samples showing selective growth inhibition or cell killing of particular tumor cell lines. This screen is unique in that the complexity of a 60 cell line dose response produced by a given compound results in a biological response pattern which can be utilized in pattern recognition algorithms (COMPARE program. See: http://dtp.nci.nih.gov/docs/compare/compare.html). Using these algorithms, it is possible to assign a putative mechanism of action to a test compound, or to determine that the response pattern is unique and not similar to that of any of the standard prototype compounds included in the NCI database. […]

[2] = system: Melanoma cell lines; assay: NCI DTP human tumor cell line screen, melanoma panel; assay type: cell-based; conditions: Melanoma (8 cell lines)
Text: as §1

[3] = Caco-2 monolayer bidirectional permeability; assay type: in vitro ADME, human; conditions: human
Description: (§2) Permeability studies were conducted by an outside contractor on behalf of the assignee of the present invention and application to determine the permeability of Compound A through Caco-2 monolayers. An important factor of oral bioavailability is the ability of e compound to be absorbed in the small intestine. Measurement of drug apparent permeability (Papp) through cell monolayers is well correlated with human intestinal absorption, and several mammalian cell lines, including Caco-2, LLC-PK1 and MDCK, are appropriate for this measurement (Artursson, P. et al., Correlation between oral drug absorption in humans and apparent drug permeability coefficients in human intestinal epithelial (Caco-2) cells. Biochem Biophys Res Comm 175:880-885 (1991); Stewart. B. H., et al., Comparison of intestinal permeabilities in multiple in vitro and in situ models: relationship to absorption in humans. Pharm Res 12:693 (1995)). P-Glycoprotein (P-gp, encoded by MDR1) is a member of the ABC transporter super family and is expressed in the human intestine, liver and other tissues. Intestinal expression of P-gp may affect the oral bioavailability of drug molecules that are substrates for this transporter. Interaction with P-gp can be studied using direct assays of drug transport in polarized cell systems such as Caco-2 cell monolayers, and human P-gp cDNA-expressing LLC-PK1 and MDCK cell monolayers. Caco-2 cells (human adenocarcinoma colonic cell line Caco-2, ATCC Cat. No. […] The cells were cultured for 21-25 days with media replacement every 3-4 days. Monolayer integrity was evaluated by pre-experimental trans-epithelial electrical resistance (TEER) measurements and post-experimental lucifer yellow A to B flux determinations. […] Receiver solution was prepared by adding 1% DMSO to transport buffer. The test solution was of Compound A in DMSO in transport buffer at a final DMSO concentration of 1%. […] The donor and receiver solutions were added to the apical or basolateral chambers of the monolayers (depending on the direction of transport to be measured). The monolayers were incubated on an orbital shaker (50 rpm) at 37° C., with ambient humidity and CO2. After 90 minutes, samples from the donor and receiver chambers were removed for analysis. […] Duplicate monolayers were used for each incubation. Samples were analyzed by LC/MS/MS using peak area ratios to an internal standard. Test article concentrations were calculated based on the peak area ratios obtained for appropriate dilutions of the donor solution containing the test article at the nominal concentration in transport buffer. Samples were diluted as appropriate to ensure that the response was within the linear range of the mass spec detector. Comparator and control samples were analyzed by liquid scintillation counting. Lucifer yellow concentrations were determined using a fluorescence plate reader.

[4] = system: Caco-2 cell monolayers; assay: Caco-2 monolayer bidirectional permeability; assay type: in vitro ADME, human; conditions: human, Caco-2, 90 min, 1 μM, pH 7.4
Description: as §2

Structure (SMILES): C[C@H](Cc1ccc(OCCCN2CCCCC2)c(OCCCN2CCCCC2)c1)[C@@H](C)Cc1ccc(OCCCN2CCCCC2)c(OCCCN2CCCCC2)c1 [Compound A, 1,4-bis{3,4-bis[3-(piperidin-1-yl)propoxy]phenyl}-2,3-dimethyl-(2R,3S)-butane]
- Mean Growth Percent at 10 μM [1]: −85.89%
- Mean Growth Percent at 10 μM [2]: −92.38%
- Papp A→B at 90 min, 1 μM ([3]; Caco-2, pH 7.4, BCS permeability class): 0.514 to 14.2 ×10⁻⁶ cm/s
- Papp A→B at 90 min, 1 μM ([3]; Caco-2, pH 7.4, Papp A to B): 9.75 ×10⁻⁶ cm/s
- Papp B→A at 90 min, 1 μM ([3]; Caco-2, pH 7.4, Papp B to A): 1.74 ×10⁻⁶ cm/s
- efflux ratio at 90 min, 1 μM ([3]; Caco-2, pH 7.4, Polarization Ratio [B-A/A-B]): 0.1 to 0.2
- Papp A to B [4]: 9.61e-06 cm/s
- Papp B to A [4]: 1.72e-06 cm/s
- Polarization Ratio [B-A/A-B] [4]: 0.18
